Measurements taken from ChEMBL document CHEMBL1201862, “PubChem BioAssay data set” (2004).
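Assay format: 96-well plates, 48-hour exposure. GI50 marks 50% less growth.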 Activity calls are given as the source filed them. No stated cut-off is given here; in the data, active = GI50 up to about 1.1 µM and inactive = higher.

Assays:
Experiment in all cases: NCI tumour cell line growth inhibition, 48 h
A549 = tested on: A549
ACHN = tested on: ACHN
CCRF-CEM = tested on: CCRF-CEM
HOP-62 = tested on: HOP-62
NCI-H522 = tested on: NCI-H522
SK-MEL-28 = tested on: SK-MEL-28
SK-OV-3 = tested on: SK-OV-3
SNB-75 = tested on: SNB-75
SR = tested on: SR
SW-620 = tested on: SW-620
UACC-62 = tested on: UACC-62
HCT-116 = tested on: HCT-116
Malme-3M = tested on: Malme-3M
SN12C = tested on: SN12C

Measured: GI50

CC(=O)OC1COC(N2CCc3cc([N+](=O)[O-])ccc32)C(OC(C)=O)C1OC(C)=O (centres undefined)
inactive: A549 > 100 µM | ACHN > 100 µM | CCRF-CEM > 100 µM | HOP-62 > 100 µM | NCI-H522 > 100 µM | SK-MEL-28 > 100 µM | SK-OV-3 > 100 µM | SNB-75 > 100 µM | SR > 100 µM | SW-620 > 100 µM | UACC-62 > 100 µM

COc1cc2c(OC)cc1CSCc1sc(C)c(c1Br)CSC2
inactive: A549 > 100 µM | ACHN > 100 µM | CCRF-CEM > 100 µM | HCT-116 > 100 µM | HOP-62 > 100 µM | Malme-3M > 100 µM | SK-MEL-28 > 100 µM | SK-OV-3 > 100 µM | SN12C > 100 µM | SNB-75 74.1 µM | SR 4.16 µM | SW-620 > 100 µM | UACC-62 > 100 µM

Cc1ccc(C)c(NC(=O)C(=O)C2C(=O)N(c3ccccc3)N=C2N)c1 (centres undefined)
inactive: A549 > 100 µM | ACHN > 100 µM | CCRF-CEM > 100 µM | HCT-116 > 100 µM | HOP-62 > 100 µM | Malme-3M > 100 µM | NCI-H522 > 100 µM | SK-MEL-28 > 100 µM | SN12C > 100 µM | SNB-75 > 100 µM | SW-620 > 100 µM | UACC-62 > 100 µM

NCCCNCCSSCCCCS(=O)O
inactive: A549 59.8 µM | ACHN 55.2 µM | HCT-116 25.7 µM | HOP-62 > 100 µM | Malme-3M 20.3 µM | NCI-H522 13.8 µM | SK-MEL-28 20.9 µM | SK-OV-3 > 100 µM | SN12C 39.6 µM | SNB-75 30.8 µM | SR 3.37 µM | SW-620 30.4 µM | UACC-62 15.7 µM

O=C1CCC(=O)N1Sc1ccccc1
inactive: A549 > 100 µM | ACHN > 100 µM | CCRF-CEM 42.4 µM | HCT-116 > 100 µM | HOP-62 > 100 µM | NCI-H522 > 100 µM | SK-MEL-28 > 100 µM | SK-OV-3 > 100 µM | SN12C > 100 µM | SNB-75 72.9 µM | SW-620 > 100 µM | UACC-62 > 100 µM

Cc1cc(C)c(N)c(C)c1N
inactive: A549 > 100 µM | ACHN > 100 µM | CCRF-CEM > 100 µM | HCT-116 > 100 µM | HOP-62 > 100 µM | Malme-3M > 100 µM | NCI-H522 > 100 µM | SK-MEL-28 > 100 µM | SK-OV-3 > 100 µM | SN12C > 100 µM | SR > 100 µM | SW-620 > 100 µM | UACC-62 > 100 µM

Nc1nc2c(ncn2C2OC(CO)C(O)C2N)c(=O)[nH]1 (centres undefined)
inactive: A549 97.1 µM | ACHN > 100 µM | CCRF-CEM 40.1 µM | HCT-116 > 100 µM | HOP-62 > 100 µM | Malme-3M > 100 µM | NCI-H522 > 100 µM | SK-MEL-28 > 100 µM | SK-OV-3 > 100 µM | SN12C > 100 µM | SNB-75 > 100 µM | SW-620 > 100 µM | UACC-62 > 100 µM

CNC(=S)OCCC(C)CCCC(C)C (centres undefined)
inactive: A549 16.3 µM | ACHN 18.8 µM | CCRF-CEM 19.4 µM | HCT-116 16.7 µM | HOP-62 19.6 µM | Malme-3M 21.5 µM | SK-MEL-28 24.7 µM | SK-OV-3 20.9 µM | SN12C 16.3 µM | SNB-75 20.8 µM | SR 14 µM | SW-620 16.6 µM | UACC-62 15.5 µM

CC(C(=O)N1C(=O)N(C(=O)C(C)C(O)c2ccccc2)C2CCCCC21)C(O)c1ccccc1 (centres undefined)
inactive: A549 44.3 µM | ACHN 58.9 µM | CCRF-CEM 44.2 µM | HCT-116 > 100 µM | HOP-62 > 100 µM | Malme-3M 57.4 µM | NCI-H522 46.8 µM | SK-MEL-28 > 100 µM | SN12C > 100 µM | SR 28.6 µM | SW-620 > 100 µM | UACC-62 > 100 µM

CC(=O)OC1(C#N)CC2OC1C1C2N1C(=O)c1ccccc1 (centres undefined)
inactive: A549 > 100 µM | ACHN > 100 µM | CCRF-CEM > 100 µM | HCT-116 > 100 µM | HOP-62 > 100 µM | Malme-3M > 100 µM | NCI-H522 > 100 µM | SK-MEL-28 > 100 µM | SK-OV-3 > 100 µM | SN12C > 100 µM | SNB-75 > 100 µM | SW-620 > 100 µM | UACC-62 > 100 µM

CC(=O)/C=C1/c2ccccc2N(C(C)=O)C1O (centres undefined)
inactive: A549 > 100 µM | ACHN > 100 µM | CCRF-CEM > 100 µM | HCT-116 > 100 µM | HOP-62 > 100 µM | SK-MEL-28 > 100 µM | SK-OV-3 > 100 µM | SN12C > 100 µM | SNB-75 > 100 µM | SR > 100 µM | SW-620 > 100 µM | UACC-62 > 100 µM

C=CCN(N=O)C(=O)NCCCCC(NC(C)=O)C(=O)NCc1ccccc1 (centres undefined)
inactive: A549 > 100 µM | ACHN > 100 µM | CCRF-CEM > 100 µM | HOP-62 > 100 µM | Malme-3M > 100 µM | NCI-H522 > 100 µM | SK-MEL-28 > 100 µM | SK-OV-3 > 100 µM | SN12C > 100 µM | SNB-75 > 100 µM | SW-620 > 100 µM | UACC-62 > 100 µM

c1ccc2c(c1)n1nnnc1c1nnnn21
inactive: A549 > 100 µM | ACHN > 100 µM | CCRF-CEM > 100 µM | HCT-116 > 100 µM | HOP-62 > 100 µM | Malme-3M > 100 µM | NCI-H522 12.6 µM | SK-MEL-28 > 100 µM | SK-OV-3 > 100 µM | SN12C > 100 µM | SNB-75 24.6 µM | SW-620 > 100 µM | UACC-62 > 100 µM

COc1ccc(C2=C(Cl)c3cc(OC)c(OC)cc3C2OC)cc1OC (centres undefined)
inactive: A549 > 100 µM | ACHN > 100 µM | CCRF-CEM 50.2 µM | HCT-116 95.7 µM | HOP-62 > 100 µM | Malme-3M > 100 µM | NCI-H522 3.25 µM | SK-MEL-28 > 100 µM | SN12C > 100 µM | SNB-75 > 100 µM | SW-620 19.5 µM | UACC-62 > 100 µM

O=c1nc2occc2cn1C1CC(O)C(CO)O1 (centres undefined)
inactive: A549 > 100 µM | ACHN > 100 µM | CCRF-CEM > 100 µM | HCT-116 > 100 µM | HOP-62 > 100 µM | Malme-3M > 100 µM | SK-MEL-28 > 100 µM | SK-OV-3 > 100 µM | SN12C > 100 µM | SNB-75 > 100 µM | SR > 100 µM | SW-620 > 100 µM | UACC-62 > 100 µM

COC(=O)c1ccc(N/C=C(/C#N)c2ccsc2)cc1
inactive: A549 15.4 µM | ACHN 5.97 µM | CCRF-CEM > 100 µM | HCT-116 8.57 µM | HOP-62 13.3 µM | Malme-3M 16.8 µM | SK-MEL-28 15.6 µM | SN12C > 10 µM | SNB-75 6.68 µM | SR > 100 µM | SW-620 21.3 µM | UACC-62 20.5 µM
